The values that follow come from publication PMC11040118 (Heliyon, 2024).

The experiment deals with T1, Thyroperoxidase (TPO) (Rattus norvegicus, UniProt P14650).
T1 sequence (P14650 32-914): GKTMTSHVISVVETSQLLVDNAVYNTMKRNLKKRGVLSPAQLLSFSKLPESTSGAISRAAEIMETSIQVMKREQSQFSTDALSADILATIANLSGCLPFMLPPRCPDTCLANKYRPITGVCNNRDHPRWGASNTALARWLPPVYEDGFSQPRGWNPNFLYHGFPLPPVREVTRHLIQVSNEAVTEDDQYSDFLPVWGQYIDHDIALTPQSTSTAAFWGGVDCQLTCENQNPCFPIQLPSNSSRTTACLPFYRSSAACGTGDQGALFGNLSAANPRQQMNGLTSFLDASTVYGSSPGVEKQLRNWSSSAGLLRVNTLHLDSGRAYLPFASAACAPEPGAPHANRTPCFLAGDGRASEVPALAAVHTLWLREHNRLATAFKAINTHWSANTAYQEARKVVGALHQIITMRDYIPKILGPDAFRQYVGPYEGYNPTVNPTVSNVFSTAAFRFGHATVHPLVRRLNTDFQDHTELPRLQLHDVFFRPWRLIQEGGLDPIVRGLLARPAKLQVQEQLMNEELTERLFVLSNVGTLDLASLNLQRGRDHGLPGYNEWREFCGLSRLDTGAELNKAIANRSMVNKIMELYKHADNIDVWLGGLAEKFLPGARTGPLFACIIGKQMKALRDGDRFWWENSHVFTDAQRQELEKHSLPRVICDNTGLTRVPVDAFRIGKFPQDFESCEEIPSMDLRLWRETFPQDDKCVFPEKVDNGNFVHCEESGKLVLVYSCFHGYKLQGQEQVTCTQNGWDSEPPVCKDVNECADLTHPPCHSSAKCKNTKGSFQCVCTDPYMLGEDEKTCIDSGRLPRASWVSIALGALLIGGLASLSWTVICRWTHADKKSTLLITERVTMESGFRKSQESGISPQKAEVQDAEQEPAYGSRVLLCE
It is filed as biochemical.

The mark [1] stands for this setting: AVG IC50 ± SD, L-Tyr to MIT, rat thyroid microsomes, mean of N = 3 ± SD.
Where [2] appears, read: Actual pIC50, in vitro value repeated in Table 2 for comparison with the models.
Setting [3] is: Log10 Value of AVG IC50, L-Tyr to MIT, from average IC50, Table 1.

Each structure is given as a SMILES string. Read-outs that look alike come from different tables or passages of the source.

One may read the IC50 as the midpoint of a concentration-inhibition curve. Regarding `COc1cc(CCC(=O)CC(=O)CCc2ccc(O)c(OC)c2)ccc1O` [Tetrahydro curcumin, Tetrahydrocurcumin], the half-maximal inhibitory concentration (IC50) runs as follows: under setting [1], 1510 ± 170 nM; under setting [2], 1550 nM; under setting [3], 1550 nM.

The molecule `Oc1ccc(OCc2ccccc2)cc1` [4-Benzyloxy phenol, 4-Benzyloxyphenol] showed a half-inhibitory concentration (IC50) under setting [1] of 8760 ± 1360 nM, an IC50 under setting [2] of 8910 nM and a half-inhibitory concentration (IC50) under setting [3] of 8910 nM.

On to `Oc1ccc(/C=C/c2cc(O)cc(O)c2)cc1` [Reservatrol, Resveratrol], for which the half-inhibitory concentration (IC50) was 710 ± 50 nM under setting [1] and 724 nM under setting [2].

Consider `O=C(O)c1cc(O)c(O)c(O)c1` [Gallic acid hydrate], for which the IC50 runs as follows: under setting [1], 790 ± 340 nM; under setting [2], 813 nM; under setting [3], 813 nM.

Regarding `COc1cc(/C=C/C(=O)CC(=O)/C=C/c2ccc(O)c(OC)c2)ccc1O` [Curcumin], the 50% inhibitory concentration (IC50) is, setting by setting: under setting [1], 1810 ± 430 nM; under setting [2], 1820 nM.

Regarding `O=C(O[C@@H]1Cc2c(O)cc(O)cc2O[C@@H]1c1cc(O)c(O)c(O)c1)c1cc(O)c(O)c(O)c1` [Epigallocatechin gallate], the “Log10 Value of AVG IC50, L-Tyr to MIT” value (from average IC50, Table 1) was 6.48. Besides, the “Actual pIC50” value (in vitro value repeated in Table 2 for comparison with the models) worked out at 6.48.

For `CC[C@H](c1ccc(O)cc1)[C@@H](CC)c1ccc(O)cc1` [Hexestrol], the IC50 was 7770 ± 2710 nM under setting [1], 7940 nM under setting [2] and 7940 nM under setting [3].

Regarding `O=c1c(O)c(-c2ccc(O)cc2)oc2cc(O)cc(O)c12` [Kaemferol, Kaempferol], the half-maximal inhibitory concentration (IC50) by setting is: under setting [1], 4930 ± 1970 nM; under setting [2], 5010 nM; under setting [3], 5010 nM.

As for `NC(=S)Nc1ccccc1` [Phenylthiourea], the IC50 runs as follows: under setting [1], 2730 ± 690 nM; under setting [2], 2750 nM.
